From PubChem BioAssay (NCI)
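1) Cells in 96-well plates. 2) Compound, 48 h, 5 concentrations. 3) Linear interpolation between surrounding doses. 4) Unreached endpoint = highest concentration. The concentration for full growth arrest is given as TGI.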

How the values were obtained:
Experiment in all cases: NCI-60 cell line screen, 48 h
NCI-H460 lung = test system: NCI-H460 lung
OVCAR-3 ovarian = test system: OVCAR-3 ovarian
K-562 leukemia = test system: K-562 leukemia
COLO 205 colon = test system: COLO 205 colon
HCT-116 colon = test system: HCT-116 colon
RXF 393 renal = test system: RXF 393 renal
MDA-MB-231 breast = test system: MDA-MB-231 breast
IGROV1 ovarian = test system: IGROV1 ovarian
SN12C renal = test system: SN12C renal
A549 NSCLC = test system: A549 NSCLC
HL-60(TB) leukemia = test system: HL-60(TB) leukemia
A498 renal = test system: A498 renal
CCRF-CEM leukemia = test system: CCRF-CEM leukemia
SNB-75 CNS = test system: SNB-75 CNS
ACHN renal = test system: ACHN renal
HCT-15 colon = test system: HCT-15 colon
BT-549 breast = test system: BT-549 breast
786-0 renal = test system: 786-0 renal
UO-31 renal = test system: UO-31 renal
SW-620 colon = test system: SW-620 colon
OVCAR-4 ovarian = test system: OVCAR-4 ovarian
OVCAR-8 ovarian = test system: OVCAR-8 ovarian
OVCAR-5 ovarian = test system: OVCAR-5 ovarian
KM12 colon = test system: KM12 colon
TK-10 renal = test system: TK-10 renal
HOP-92 NSCLC = test system: HOP-92 NSCLC
MCF7 breast = test system: MCF7 breast
SF-539 CNS = test system: SF-539 CNS
HT29 colon = test system: HT29 colon
MDA-MB-435 = test system: MDA-MB-435
NCI-H23 lung = test system: NCI-H23 lung
UACC-62 melanoma = test system: UACC-62 melanoma
M14 melanoma = test system: M14 melanoma
HS 578T breast = test system: HS 578T breast
SK-OV-3 ovarian = test system: SK-OV-3 ovarian
UACC-257 melanoma = test system: UACC-257 melanoma
MDA-N = test system: MDA-N
LOX IMVI melanoma = test system: LOX IMVI melanoma
HOP-62 NSCLC = test system: HOP-62 NSCLC
SNB-19 CNS = test system: SNB-19 CNS
T-47D breast = test system: T-47D breast
NCI-H226 lung = test system: NCI-H226 lung
NCI/ADR-RES ovarian = test system: NCI/ADR-RES ovarian
DU-145 prostate = test system: DU-145 prostate
SF-268 CNS = test system: SF-268 CNS
CAKI-1 renal = test system: CAKI-1 renal
NCI-H522 lung = test system: NCI-H522 lung
EKVX NSCLC = test system: EKVX NSCLC
RPMI-8226 leukemia = test system: RPMI-8226 leukemia
SF-295 CNS = test system: SF-295 CNS
MALME-3M melanoma = test system: MALME-3M melanoma
SK-MEL-2 melanoma = test system: SK-MEL-2 melanoma
SK-MEL-28 melanoma = test system: SK-MEL-28 melanoma
HCC-2998 colon = test system: HCC-2998 colon
SR leukemia = test system: SR leukemia
SK-MEL-5 melanoma = test system: SK-MEL-5 melanoma
U251 CNS = test system: U251 CNS
MOLT-4 leukemia = test system: MOLT-4 leukemia
PC-3 prostate = test system: PC-3 prostate

CCN1C(=O)C(=C/C=C/C=C2/N(C)c3ccccc3C2(C)C)C(=O)N(CC)C1=S
TGI (NCI-H460 lung): > 100 µM | TGI (OVCAR-3 ovarian): > 100 µM | TGI (K-562 leukemia): > 100 µM | TGI (COLO 205 colon): > 100 µM | TGI (HCT-116 colon): > 100 µM | TGI (RXF 393 renal): > 100 µM | TGI (MDA-MB-231 breast): > 100 µM | TGI (IGROV1 ovarian): > 100 µM | TGI (SN12C renal): > 100 µM | TGI (A549 NSCLC): > 100 µM | TGI (HL-60(TB) leukemia): > 100 µM | TGI (A498 renal): > 100 µM | TGI (CCRF-CEM leukemia): > 100 µM | TGI (SNB-75 CNS): > 100 µM | TGI (ACHN renal): > 100 µM | TGI (HCT-15 colon): > 100 µM | TGI (BT-549 breast): 70.9 µM | TGI (786-0 renal): > 100 µM | TGI (UO-31 renal): > 100 µM | TGI (SW-620 colon): > 100 µM | TGI (OVCAR-4 ovarian): > 100 µM | TGI (OVCAR-8 ovarian): > 100 µM | TGI (OVCAR-5 ovarian): > 100 µM | TGI (KM12 colon): > 100 µM | TGI (TK-10 renal): > 100 µM | TGI (HOP-92 NSCLC): > 100 µM | TGI (MCF7 breast): > 100 µM | TGI (SF-539 CNS): > 100 µM | TGI (HT29 colon): > 100 µM | TGI (MDA-MB-435): > 100 µM | TGI (NCI-H23 lung): > 100 µM | TGI (UACC-62 melanoma): > 100 µM | TGI (M14 melanoma): > 100 µM | TGI (HS 578T breast): > 100 µM | TGI (SK-OV-3 ovarian): > 100 µM | TGI (UACC-257 melanoma): > 100 µM | TGI (MDA-N): > 100 µM | TGI (LOX IMVI melanoma): > 100 µM | TGI (HOP-62 NSCLC): > 100 µM | TGI (SNB-19 CNS): > 100 µM | TGI (T-47D breast): > 100 µM | TGI (NCI-H226 lung): > 100 µM | TGI (NCI/ADR-RES ovarian): > 100 µM | TGI (DU-145 prostate): > 100 µM | TGI (SF-268 CNS): > 100 µM | TGI (CAKI-1 renal): > 100 µM | TGI (NCI-H522 lung): > 100 µM | TGI (EKVX NSCLC): > 100 µM | TGI (RPMI-8226 leukemia): > 100 µM | TGI (SF-295 CNS): > 100 µM | TGI (MALME-3M melanoma): > 100 µM | TGI (SK-MEL-2 melanoma): > 100 µM

CO[C@@H]1C[C@H]2[C@@H]3CC[C@H]([C@@H](C)CO)[C@@]3(C)CC[C@@H]2[C@@]2(C)CC[C@H]3C[C@]312
TGI (NCI-H460 lung): 43.1 µM | TGI (OVCAR-3 ovarian): > 100 µM | TGI (K-562 leukemia): 60.5 µM | TGI (COLO 205 colon): 31.4 µM | TGI (HCT-116 colon): > 100 µM | TGI (RXF 393 renal): 45.6 µM | TGI (MDA-MB-231 breast): 80.7 µM | TGI (SK-MEL-28 melanoma): 83.5 µM | TGI (IGROV1 ovarian): > 100 µM | TGI (SN12C renal): 77.1 µM | TGI (A549 NSCLC): > 100 µM | TGI (HL-60(TB) leukemia): 76.3 µM | TGI (A498 renal): > 100 µM | TGI (CCRF-CEM leukemia): > 100 µM | TGI (SNB-75 CNS): > 100 µM | TGI (ACHN renal): 66.4 µM | TGI (HCT-15 colon): > 100 µM | TGI (HCC-2998 colon): > 100 µM | TGI (786-0 renal): > 100 µM | TGI (UO-31 renal): 98.8 µM | TGI (SW-620 colon): > 100 µM | TGI (OVCAR-4 ovarian): > 100 µM | TGI (OVCAR-8 ovarian): > 100 µM | TGI (OVCAR-5 ovarian): > 100 µM | TGI (KM12 colon): 36.6 µM | TGI (TK-10 renal): > 100 µM | TGI (HOP-92 NSCLC): 58.5 µM | TGI (MCF7 breast): 31.8 µM | TGI (SF-539 CNS): > 100 µM | TGI (HT29 colon): 36.2 µM | TGI (SR leukemia): > 100 µM | TGI (MDA-MB-435): > 100 µM | TGI (NCI-H23 lung): > 100 µM | TGI (M14 melanoma): 69.8 µM | TGI (HS 578T breast): 82.3 µM | TGI (UACC-257 melanoma): 71.9 µM | TGI (MDA-N): > 100 µM | TGI (SK-MEL-5 melanoma): 31.1 µM | TGI (LOX IMVI melanoma): 34.6 µM | TGI (HOP-62 NSCLC): > 100 µM | TGI (U251 CNS): 27.7 µM | TGI (SNB-19 CNS): > 100 µM | TGI (T-47D breast): > 100 µM | TGI (NCI-H226 lung): 59.9 µM | TGI (NCI/ADR-RES ovarian): 93 µM | TGI (DU-145 prostate): > 100 µM | TGI (SF-268 CNS): > 100 µM | TGI (CAKI-1 renal): > 100 µM | TGI (MOLT-4 leukemia): > 100 µM | TGI (NCI-H522 lung): 71.8 µM | TGI (EKVX NSCLC): > 100 µM | TGI (PC-3 prostate): 57.3 µM | TGI (RPMI-8226 leukemia): 89.6 µM | TGI (SF-295 CNS): 89.2 µM | TGI (MALME-3M melanoma): 41.2 µM
